Data from paper PMC8634379, “From the Design to the In Vivo Evaluation of Benzohomoadamantane-Derived Soluble Epoxide Hydrolase Inhibitors for the Treatment of Acute Pancreatitis” (Journal of Medicinal Chemistry, 2021).
In brackets after ≈: the same amount, converted by molar mass.

Tests used:
Microsomal stability [1] = conditions: after 60 min incubation, NADP, 37 °C
Description: (§1) The human, rat, and mice recombinant microsomes employed were purchased from Tebu–Xenotech. […] Samples (75 μL) were taken from each well at 0, 10, 20, 40, and 60 min and transferred to a plate containing 4 °C 75 μL of acetonitrile and 30 μL of 0.5% formic acid in water were added for improving the chromatographic conditions. The plate was centrifuged ([…], 30 min) and supernatants were taken and analyzed by an ultraperformance liquid chromatograph–tandem mass spectrometer (Xevo-TQD, Waters) by employing a BEH C18 column and an isocratic gradient of 0.1% formic acid in water: 0.1% formic acid acetonitrile (60:40). The metabolic stability of the compounds was calculated from the logarithm of the remaining compounds at each of the time points studied.

human COX-2 (hCOX-2) = target: T1, human COX-2 (hCOX-2) (Homo sapiens, UniProt P35354); assay: Inhibition of hCOX-2 (Eurofins, catalogue reference 4186); type: biochemical; conditions: for IC50: performed by Eurofins
T1 sequence (P35354 18-604): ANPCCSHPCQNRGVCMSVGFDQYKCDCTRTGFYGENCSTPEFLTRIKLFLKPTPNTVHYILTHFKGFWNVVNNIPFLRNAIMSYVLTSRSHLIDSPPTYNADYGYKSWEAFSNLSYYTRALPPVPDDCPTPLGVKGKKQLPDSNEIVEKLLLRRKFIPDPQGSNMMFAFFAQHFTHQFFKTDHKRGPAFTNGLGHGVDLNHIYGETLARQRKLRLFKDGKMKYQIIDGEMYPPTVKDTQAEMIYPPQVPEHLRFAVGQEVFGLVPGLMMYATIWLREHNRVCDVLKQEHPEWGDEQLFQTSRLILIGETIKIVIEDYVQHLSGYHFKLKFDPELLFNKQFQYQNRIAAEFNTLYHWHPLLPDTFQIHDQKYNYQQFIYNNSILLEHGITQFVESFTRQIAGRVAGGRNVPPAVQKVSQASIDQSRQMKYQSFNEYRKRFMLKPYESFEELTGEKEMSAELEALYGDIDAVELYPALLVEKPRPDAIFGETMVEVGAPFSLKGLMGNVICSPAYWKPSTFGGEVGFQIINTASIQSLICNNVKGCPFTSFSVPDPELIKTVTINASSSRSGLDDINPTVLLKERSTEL

SH-SY5Y cells = assay: Cytotoxicity by propidium iodide staining; type: cell-based; conditions: 100 μM, 24 h
Description: Cytotoxicity was evaluated in the human neuroblastoma SH-SY5Y cell line (ATCC number: CRL-2266). Cells were cultured in minimum essential medium/Ham’s-F12 (1:1, v/v) medium, supplemented with non-essential amino acids, 10% fetal bovine serum, 1 mM glutamine, and 50 μg/mL gentamycin (all reagents from Gibco, Invitrogen). For experiments, the cells were seeded at 3 × 10^5 cells/mL (100 μL/well) in 96-well plates (Nunc). After 24 h, the testing compounds were added concentrated to triplicate wells to obtain the final different concentrations up to 100 μM. Compounds were incubated for further 24 h. At termination, cytotoxicity was analyzed by the propidium iodide (PI) fluorescence stain assay. All compounds were tested in three independent experiments using different cell passages. The PI assay measures cell death. […]. The percentage of cell death induced by the treatments was calculated from the fluorescence of treated cells (Ft) relative to that of control cells (Fmin) and cells incubated with Triton X100 (Fmax) as the 0 and 100% cell death, respectively [% = ((Ft – Fmin)/(Fmax – Fmin)) × 100].

human LOX-5 (hLOX-5) = target: T2, human LOX-5 (hLOX-5) (Homo sapiens, UniProt P09917); assay: Inhibition of hLOX-5; type: biochemical
T2 construct: purchased Cayman Chemical
T2 sequence (P09917 1-674): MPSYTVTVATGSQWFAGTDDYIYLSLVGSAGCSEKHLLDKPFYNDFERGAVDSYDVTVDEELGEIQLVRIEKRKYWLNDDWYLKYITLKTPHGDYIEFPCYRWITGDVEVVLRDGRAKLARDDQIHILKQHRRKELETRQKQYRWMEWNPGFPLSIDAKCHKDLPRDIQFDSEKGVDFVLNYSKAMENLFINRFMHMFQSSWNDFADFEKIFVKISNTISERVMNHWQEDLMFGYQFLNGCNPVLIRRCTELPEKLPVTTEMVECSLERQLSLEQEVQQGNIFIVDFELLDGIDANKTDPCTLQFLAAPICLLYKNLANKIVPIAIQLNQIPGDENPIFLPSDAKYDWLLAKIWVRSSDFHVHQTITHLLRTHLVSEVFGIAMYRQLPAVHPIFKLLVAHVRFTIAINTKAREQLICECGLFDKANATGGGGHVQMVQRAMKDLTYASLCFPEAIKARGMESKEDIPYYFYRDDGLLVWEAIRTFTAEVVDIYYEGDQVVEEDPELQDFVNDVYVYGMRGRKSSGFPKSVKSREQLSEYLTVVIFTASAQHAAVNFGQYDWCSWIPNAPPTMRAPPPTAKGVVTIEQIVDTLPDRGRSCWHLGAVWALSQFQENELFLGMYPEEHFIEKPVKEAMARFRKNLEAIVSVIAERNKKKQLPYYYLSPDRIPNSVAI
Description: AA and 2′,7′-dichlorodihydrofluorescein diacetate (H2DCFDA) were obtained from Sigma. Human recombinant LOX-5 was purchased from Cayman Chemical. For the determination of hLOX-5 activity, the method described by Pufahl et al. was followed.[51] The assay solution consisted of 50 mM Tris (pH 7.5), 2 mM EDTA, 2 mM CaCl2, 3 μM AA, 10 μM ATP, 10 μM H2DCFDA, and 100 mU/well hLOX-5. For the enzyme inhibition studies, the compounds to be tested were added to the assay solution prior to AA and ATP and were preincubated for a period of 10 min at room temperature, after which AA and ATP were added. The enzymatic reaction was carried out for 20 min and terminated by the addition of 40 μL of acetonitrile.

Microsomal stability [2] = type: in vitro ADME, mice; conditions: after 60 min incubation, NADP, 37 °C
Description: as §1

[3] = Solubility in 1% DMSO: 99% PBS (nephelometry); type: physicochemical; conditions: PBS with 1% DMSO, 1% DMSO: 99% PBS buffer solution, 37 °C
Description: A 10 mM stock solution of the compound was serially diluted in 100% DMSO and 1 μL of this solution was added to a 384-well UV-transparent plate (Greiner) containing 99 μL of PBS. The plate was incubated at 37 °C for 2 h and the light scattering was measured in a Nephelostar Plus reader (BMG LABTECH). The data were fitted to a segmented linear regression for measuring the compound solubility.

Structure (SMILES) | microsomal stability, percentage of remaining compound (rat) (Microsomal stability [1]) [%] | inhibition of hCOX-2 (selectivity) (human COX-2 (hCOX-2)) | IC50 (human COX-2 (hCOX-2)) [µM] | cytotoxicity at the highest concentration tested (SH-SY5Y cells) | IC50 (human LOX-5 (hLOX-5)) [µM] | inhibition of hLOX-5 (selectivity) (human LOX-5 (hLOX-5)) | microsomal stability, percentage of remaining compound (mice) (Microsomal stability [2]) [%] | solubility at 2 h [3] [µM]
CC12CC3CC(NC(=O)N[C@H]4CC[C@H](Oc5ccc(C(=O)O)cc5)CC4)(CC(C1)c1ccccc13)C2 [Compound 20, 4-[((1r,4r)-4-(3-(9-Methyl-5,6,8,9,10,11-Hexahydro-7H-5,9:7,11-dimethanobenzo[9]annulen-7-yl)ureido)cyclohexyl)oxy]benzoic Acid] | 2 | Neither 20 nor the halogenated analogues 22 and 23 significantly inhibited | > 10 | None of the compounds showed to be cytotoxic | > 100 | Neither 20 nor the halogenated analogues 22 and 23 significantly inhibited | 10 | 4 (≈ 1.95 µg/mL)
O=C(NC12CC3CC(Cl)(CC(C1)c1ccccc13)C2)N[C@H]1CC[C@H](Oc2ccc(C(=O)O)cc2)CC1 [Compound 22, 4-[((1r,4r)-4-(3-(9-Chloro-5,6,8,9,10,11-hexahydro-7H-5,9:7,11-dimethanobenzo[9]annulen-7-yl)ureido)cyclohexyl)oxy]benzoic Acid] | 52 |  | > 10 | None of the compounds showed to be cytotoxic | > 100 |  | 29 | 13 (≈ 6.62 µg/mL)
O=C(NC12CC3CC(F)(CC(C1)c1ccccc13)C2)N[C@H]1CC[C@H](Oc2ccc(C(=O)O)cc2)CC1 [Compound 23, 4-[((1r,4r)-4-(3-(9-Fluoro-5,6,8,9,10,11-hexahydro-7H-5,9:7,11-dimethanobenzo[9]annulen-7-yl)ureido)cyclohexyl)oxy]benzoic Acid] | 60 | Neither 20 nor the halogenated analogues 22 and 23 significantly inhibited | > 10 | None of the compounds showed to be cytotoxic | > 100 | Neither 20 nor the halogenated analogues 22 and 23 significantly inhibited | 36 | 7 (≈ 3.45 µg/mL)
